Laboratory results taken from patent publication US20100222269A1, “IMPROVED DERIVATIVES OF AMYLIN” (priority 2007, published 2010).
Read-outs that look alike come from different tables or passages of the source. Starred links: 1 amine or outer side, 2 acyl side, 3 side chain; linkers in the order of their positions; H or OH if unused. Positions of bridges follow the written chain, without caps; N, C: chain ends. Residues, ends and D or L forms follow the SMILES beside them. Groups on a side chain read outwards from the residue. *: point of attachment. C20 diacid = O=C(O)CCCCCCCCCCCCCCCCCCC(=O)*; C18 diacid = O=C(O)CCCCCCCCCCCCCCCCC(=O)*; γGlu = O=C(O)[C@H](CCC(=O)[*:2])N[*:1]; AEEA = NCCOCCOCC(=O)O

Target: T1, Amylin 3(a) receptor (human calcitonin receptor (CTa) with RAMP-3) (Homo sapiens, UniProt O60896+P30988)
T1 construct: expressed in transfected cells; host or cells: BHK570 (baby hamster kidney) cells, stably transfected, with CRE-luciferase reporter
Assay: Amylin luciferase assay (CRE-luciferase reporter in BHK Amylin 3(a)//CRE-luc cells)
Format: cell-based
Procedure, shortened: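 BHK570 cells stably expressing human calcitonin receptor (CTa), RAMP-3 and a CRE-luciferase reporter, about 20.000 cells/well, were exposed to standard or sample for 4 h at 37° C in phenol-red-free DMEM with 10% FBS and 10 mM Hepes pH 7,4. Luminescence was read after 30 min with LucLite at room temperature.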

[1] = BHK570 cells with human calcitonin receptor (CTa), RAMP-3 and CRE-luciferase reporter, 4 hours incubation, read-out: Potency luciferase assay

T1 sequence (O60896 24-148): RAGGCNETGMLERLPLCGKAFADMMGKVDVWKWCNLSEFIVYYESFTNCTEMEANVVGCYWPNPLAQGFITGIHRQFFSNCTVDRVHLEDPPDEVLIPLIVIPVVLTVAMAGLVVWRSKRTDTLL
T1 sequence (P30988 25-474): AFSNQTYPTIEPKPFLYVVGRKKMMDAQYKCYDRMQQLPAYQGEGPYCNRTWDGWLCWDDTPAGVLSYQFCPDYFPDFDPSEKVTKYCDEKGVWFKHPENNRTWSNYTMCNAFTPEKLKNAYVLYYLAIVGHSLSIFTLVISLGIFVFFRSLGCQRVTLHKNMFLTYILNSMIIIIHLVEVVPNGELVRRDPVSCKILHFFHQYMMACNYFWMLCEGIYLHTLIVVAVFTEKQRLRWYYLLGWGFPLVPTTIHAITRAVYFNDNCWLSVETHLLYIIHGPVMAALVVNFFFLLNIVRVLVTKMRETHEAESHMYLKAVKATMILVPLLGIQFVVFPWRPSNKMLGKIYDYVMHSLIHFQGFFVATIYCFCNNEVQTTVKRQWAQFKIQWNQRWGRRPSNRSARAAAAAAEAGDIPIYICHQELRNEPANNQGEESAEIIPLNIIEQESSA

SMILES | EC50 [1] [nM] | EC50 [nM]
CC[C@H](C)[C@H](NC(=O)[C@@H]1CCCN1C(=O)CNC(=O)[C@H](Cc1ccccc1)NC(=O)[C@H](CC(N)=O)NC(=O)[C@H](CC(N)=O)NC(=O)[C@H](CO)NC(=O)[C@H](CO)NC(=O)[C@H](Cc1c[nH]cn1)NC(=O)[C@@H](NC(=O)[C@H](CC(C)C)NC(=O)[C@H](Cc1ccccc1)NC(=O)[C@H](CC(N)=O)NC(=O)[C@H](C)NC(=O)[C@H](CC(C)C)NC(=O)[C@H](CCCNC(=N)N)NC(=O)[C@H](CCC(N)=O)NC(=O)[C@@H](NC(=O)[C@H](C)NC(=O)[C@@H]1CSSC[C@H](NC(=O)[C@H](CCC(=O)O)NC(=O)[C@H](CCCNC(=N)N)NC(=O)[C@H](CCC(=O)O)NC(=O)[C@H](CCC(=O)O)NC(=O)CC[C@H](NC(=O)CCCCCCCCCCCCCCCCCCC(=O)O)C(=O)O)C(=O)N[C@@H](CC(N)=O)C(=O)N[C@@H]([C@@H](C)O)C(=O)N[C@@H](C)C(=O)N[C@@H]([C@@H](C)O)C(=O)N1)[C@@H](C)O)C(C)C)C(=O)N[C@@H](CC(C)C)C(=O)N1CCC[C@H]1C(=O)N1CCC[C@H]1C(=O)N[C@H](C(=O)N[C@@H](CC(N)=O)C(=O)N[C@H](C(=O)NCC(=O)N[C@@H](CO)C(=O)N[C@@H](CC(N)=O)C(=O)N[C@H](C(=O)N[C@@H](Cc1ccc(O)cc1)C(N)=O)[C@@H](C)O)C(C)C)[C@@H](C)O [Example 38, N-alpha-[(S)-4-carboxy-4-(19-carboxynonadecanoylamino)butyryl]-Glu-Glu-Arg-[Glu1]-pramlintide (1-37)] ({C20 diacid-γGlu}-EERECNTATCATQRLANFLVHSSNNFGPILPPTNVGSNTY-NH2; disulfide 5-10; C-terminus assumed) | 0.3 | 
CC[C@H](C)[C@H](NC(=O)[C@@H]1CCCN1C(=O)CNC(=O)[C@H](Cc1ccccc1)NC(=O)[C@H](CC(N)=O)NC(=O)[C@H](CCCCNC(=O)COCCOCCNC(=O)COCCOCCNC(=O)CCCCCCCCCCCCCCCCCCC(=O)O)NC(=O)[C@H](CO)NC(=O)[C@H](CO)NC(=O)[C@H](Cc1c[nH]cn1)NC(=O)[C@@H](NC(=O)[C@H](CC(C)C)NC(=O)[C@H](Cc1ccccc1)NC(=O)[C@H](CC(N)=O)NC(=O)[C@H](C)NC(=O)[C@H](CC(C)C)NC(=O)[C@H](CCCNC(=N)N)NC(=O)[C@H](CCC(N)=O)NC(=O)[C@@H](NC(=O)[C@H](C)NC(=O)[C@@H]1CSSC[C@H](NC(=O)[C@@H](N)CCCCN)C(=O)N[C@@H](CC(N)=O)C(=O)N[C@@H]([C@@H](C)O)C(=O)N[C@@H](C)C(=O)N[C@@H]([C@@H](C)O)C(=O)N1)[C@@H](C)O)C(C)C)C(=O)N[C@@H](CC(C)C)C(=O)N1CCC[C@H]1C(=O)N1CCC[C@H]1C(=O)N[C@H](C(=O)N[C@@H](CC(N)=O)C(=O)N[C@H](C(=O)NCC(=O)N[C@@H](CO)C(=O)N[C@@H](CC(N)=O)C(=O)N[C@H](C(=O)N[C@@H](Cc1ccc(O)cc1)C(N)=O)[C@@H](C)O)C(C)C)[C@@H](C)O [Example 7, N-epsilon2′-(2-{2-[2-(2-{2-[2-(19-carboxynonadecanoylamino)ethoxy]ethoxy}acetylamino)ethoxy]ethoxy}acetyl)-[Lys21]-pramlintide (1-37)] (H-KCNTATCATQRLANFLVHSSK([AEEA-AEEA-C20 diacid])NFGPILPPTNVGSNTY-NH2; disulfide 2-7; N-terminus and C-terminus assumed) | 0.1 | 
CC[C@H](C)[C@H](NC(=O)[C@@H]1CCCN1C(=O)CNC(=O)[C@H](Cc1ccccc1)NC(=O)[C@H](CC(N)=O)NC(=O)[C@H](CC(N)=O)NC(=O)[C@H](CO)NC(=O)[C@H](CO)NC(=O)[C@H](Cc1c[nH]cn1)NC(=O)[C@@H](NC(=O)[C@H](CC(C)C)NC(=O)[C@H](Cc1ccccc1)NC(=O)[C@H](CC(N)=O)NC(=O)[C@H](C)NC(=O)[C@H](CC(C)C)NC(=O)[C@H](CCCNC(=N)N)NC(=O)[C@H](CCC(N)=O)NC(=O)[C@@H](NC(=O)[C@H](C)NC(=O)[C@@H]1CSSC[C@H](NC(=O)[C@H](CCCNC(=N)N)NC(=O)CC[C@H](NC(=O)CCCCCCCCCCCCCCCCCCC(=O)O)C(=O)O)C(=O)N[C@@H](CC(N)=O)C(=O)N[C@@H]([C@@H](C)O)C(=O)N[C@@H](C)C(=O)N[C@@H]([C@@H](C)O)C(=O)N1)[C@@H](C)O)C(C)C)C(=O)N[C@@H](CC(C)C)C(=O)N1CCC[C@H]1C(=O)N1CCC[C@H]1C(=O)N[C@H](C(=O)N[C@@H](CC(N)=O)C(=O)N[C@H](C(=O)NCC(=O)N[C@@H](CO)C(=O)N[C@@H](CC(N)=O)C(=O)N[C@H](C(=O)N[C@@H](Cc1ccc(O)cc1)C(N)=O)[C@@H](C)O)C(C)C)[C@@H](C)O [Example 45, N-alpha-[(S)-4-carboxy-4-(19-carboxynonadecanoylamino)butyryl]-[Arg1]-pramlintide (1-37)] ({C20 diacid-γGlu}-RCNTATCATQRLANFLVHSSNNFGPILPPTNVGSNTY-NH2; disulfide 2-7; C-terminus assumed) | 0.04 | 
CC[C@H](C)[C@H](NC(=O)[C@@H]1CCCN1C(=O)CNC(=O)[C@H](Cc1ccccc1)NC(=O)[C@H](CC(N)=O)NC(=O)[C@H](CC(N)=O)NC(=O)[C@H](CO)NC(=O)[C@H](CO)NC(=O)[C@H](Cc1c[nH]cn1)NC(=O)[C@@H](NC(=O)[C@H](CC(C)C)NC(=O)[C@H](Cc1ccccc1)NC(=O)[C@H](CC(N)=O)NC(=O)[C@H](C)NC(=O)[C@H](CC(C)C)NC(=O)[C@H](CCCNC(=N)N)NC(=O)[C@H](CCC(N)=O)NC(=O)[C@@H](NC(=O)[C@H](C)NC(=O)[C@@H]1CSSC[C@H](NC(=O)CC[C@H](NC(=O)CCCCCCCCCCCCCCCCCCC(=O)O)C(=O)O)C(=O)N[C@@H](CC(N)=O)C(=O)N[C@@H]([C@@H](C)O)C(=O)N[C@@H](C)C(=O)N[C@@H]([C@@H](C)O)C(=O)N1)[C@@H](C)O)C(C)C)C(=O)N[C@@H](CC(C)C)C(=O)N1CCC[C@H]1C(=O)N1CCC[C@H]1C(=O)N[C@H](C(=O)N[C@@H](CC(N)=O)C(=O)N[C@H](C(=O)NCC(=O)N[C@@H](CO)C(=O)N[C@@H](CC(N)=O)C(=O)N[C@H](C(=O)N[C@@H](Cc1ccc(O)cc1)C(N)=O)[C@@H](C)O)C(C)C)[C@@H](C)O [Example 43, N-alpha-[(S)-4-carboxy-4-(19-carboxynonadecanoylamino)butyryl]-pramlintide (2-37)] ({C20 diacid-γGlu}-CNTATCATQRLANFLVHSSNNFGPILPPTNVGSNTY-NH2; disulfide 1-6; C-terminus assumed) | 0.1 | 
CC[C@H](C)[C@H](NC(=O)[C@H](CCCCNC(=O)CC[C@H](NC(=O)CCCCCCCCCCCCCCCCC(=O)O)C(=O)O)NC(=O)CNC(=O)[C@H](Cc1ccccc1)NC(=O)[C@H](CC(N)=O)NC(=O)[C@H](CC(N)=O)NC(=O)[C@H](CO)NC(=O)[C@H](CO)NC(=O)[C@H](Cc1c[nH]cn1)NC(=O)[C@@H](NC(=O)[C@H](CC(C)C)NC(=O)[C@H](Cc1ccccc1)NC(=O)[C@H](CC(N)=O)NC(=O)[C@H](C)NC(=O)[C@H](CC(C)C)NC(=O)[C@H](CCCNC(=N)N)NC(=O)[C@H](CCC(N)=O)NC(=O)[C@@H](NC(=O)[C@H](C)NC(=O)[C@@H]1CSSC[C@H](NC(=O)[C@@H](N)CCCCN)C(=O)N[C@@H](CC(N)=O)C(=O)N[C@@H]([C@@H](C)O)C(=O)N[C@@H](C)C(=O)N[C@@H]([C@@H](C)O)C(=O)N1)[C@@H](C)O)C(C)C)C(=O)N[C@@H](CC(C)C)C(=O)N1CCC[C@H]1C(=O)N1CCC[C@H]1C(=O)N[C@H](C(=O)N[C@@H](CC(N)=O)C(=O)N[C@H](C(=O)NCC(=O)N[C@@H](CO)C(=O)N[C@@H](CC(N)=O)C(=O)N[C@H](C(=O)N[C@@H](Cc1ccc(O)cc1)C(N)=O)[C@@H](C)O)C(C)C)[C@@H](C)O [Example 27, N-epsilon25-[(S)-4-carboxy-4-(17-carboxyheptadecanoylamino)butyryl]-[Lys25]-pramlintide (1-37)] (H-KCNTATCATQRLANFLVHSSNNFGK([γGlu-C18 diacid])ILPPTNVGSNTY-NH2; disulfide 2-7; N-terminus assumed) | 0.09 | 
CC(C)C[C@H](NC(=O)[C@H](CC(N)=O)NC(=O)[C@H](CCC(N)=O)NC(=O)[C@H](CO)NC(=O)[C@H](CO)NC(=O)[C@H](CCCNC(=N)N)NC(=O)[C@@H](NC(=O)[C@H](CC(C)C)NC(=O)[C@H](Cc1ccccc1)NC(=O)[C@H](CC(N)=O)NC(=O)[C@H](C)NC(=O)[C@H](CC(C)C)NC(=O)[C@H](CCCNC(=N)N)NC(=O)[C@H](CCC(N)=O)NC(=O)[C@@H](NC(=O)[C@H](C)NC(=O)[C@@H]1CSSC[C@H](NC(=O)[C@H](CCC(=O)O)NC(=O)[C@H](CCCNC(=N)N)NC(=O)[C@H](CCC(=O)O)NC(=O)[C@H](CCC(=O)O)NC(=O)CCCCCCCCCCCCCCCCCCC(=O)O)C(=O)N[C@@H](CCC(N)=O)C(=O)N[C@@H]([C@@H](C)O)C(=O)N[C@@H](C)C(=O)N[C@@H]([C@@H](C)O)C(=O)N1)[C@@H](C)O)C(C)C)C(=O)NCC(=O)N1CCC[C@H]1C(=O)N[C@H](C(=O)N[C@@H](CC(C)C)C(=O)N1CCC[C@H]1C(=O)N1CCC[C@H]1C(=O)N[C@H](C(=O)N[C@@H](CC(N)=O)C(=O)N[C@H](C(=O)NCC(=O)N[C@@H](CO)C(=O)N[C@@H](CC(N)=O)C(=O)N[C@H](C(=O)N[C@@H](Cc1ccc(O)cc1)C(N)=O)[C@@H](C)O)C(C)C)[C@@H](C)O)C(C)C [Example 35, N-alpha-(19-carboxynonadecanoyl)-Glu-Glu-Arg-[Glu1,Gln3,Arg18,Gln21,Leu23,Val26]-pramlintide (1-37)] ({C20 diacid}-EERECQTATCATQRLANFLVRSSQNLGPVLPPTNVGSNTY-NH2; disulfide 5-10; C-terminus assumed) |  | 0.09
